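Each compound was tested at five concentrations against cells in 96-well plates for 48 hours. TGI is the concentration that stops growth completely.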

Common to all, as to test: DTP human tumour cell line panel, 48 h
Test [1] concerns MOLT-4 leukemia.
Test [2] deals with SNB-19 CNS.
The test system of test [3] is K-562 leukemia.
For test [4], the system named is HCC-2998 colon.
The test system of test [5] is LOX IMVI melanoma.
In test [6] the test system is RPMI-8226 leukemia.
Test [7] concerns SK-MEL-5 melanoma.
For test [8], the system named is CCRF-CEM leukemia.
Test [9] deals with SN12C renal.
Test [10] has as its system UO-31 renal.
The subject of test [11] is HOP-62 NSCLC.
Test [12] deals with OVCAR-8 ovarian.
The test system of test [13] is HT29 colon.
In test [14] the test system is 786-0 renal.
The test system of test [15] is MDA-MB-231 breast.
For test [16], the system named is SK-OV-3 ovarian.
Test [17] deals with T-47D breast.

`CCN(CC)CC1CCCCCCCCCCC1=O` (centres undefined): the TGI in test [1], in test [2], in [3], in [4], in test [5] and in test [6] was above 100 µM each time. Further, the total growth inhibition concentration (TGI) in test [7], in test [8], in test [9], in test [10], in test [11] and in [12] was above 100 µM throughout. In addition, the TGI in test [13] and in test [14] was above 100 µM in each case.
Regarding `O=Cc1cn(CCCCCCCCCCCCn2cc(C=O)c3ccccc32)c2ccccc12`, the total growth inhibition concentration (TGI) in [1], in [2], in [3], in test [15], in test [4] and in [5] was above 100 µM throughout. Besides, the total growth inhibition concentration (TGI) in [7], in [9], in [16], in [10], in [11] and in [12] was above 100 µM in each case. For the same molecule, the TGI in test [13] and in test [14] was above 100 µM each time.
In the case of `N#Cc1c(-c2ccc(Cl)cc2)c2c([nH]c1=O)-c1ccccc1SC2`, the total growth inhibition concentration (TGI) in test [1] was 94.8 µM; in test [2] it was above 100 µM; in test [3], above 100 µM; in test [15], above 100 µM; in test [5] it was 73.9 µM; in test [6], 98.8 µM. In addition, the concentration for total growth inhibition (TGI) is above 100 µM in test [7]; 88.6 µM in test [8]; above 100 µM in [9]; above 100 µM in [16]; above 100 µM in test [10]; above 100 µM in test [11]. Besides, the TGI in [12], in [13] and in test [14] was above 100 µM in each case.
On to `CCCCCCCCCC1(N=[N+]=[N-])C(=O)c2ccccc2N(C)C1=O` (centres undefined), for which the TGI in [2] was above 100 µM; in test [3], above 100 µM; in test [4], 96.2 µM; in test [5] it was 34.3 µM; in [17], 9.17 µM; in test [6] it was above 100 µM. Further, the TGI in [7] is 26.6 µM; in [8], above 100 µM; in [9], 57.8 µM; in [16], above 100 µM; in [10] it was above 100 µM; in test [11], above 100 µM. In addition, the total growth inhibition concentration (TGI) in test [13] and in test [14] was above 100 µM throughout.
With `CCc1cc2c(oc3cc4ccccc4cc32)c(=O)[nH]1`, the TGI in [2], in [15], in test [4], in test [5], in test [9] and in test [10] was above 10 µM each time. Also, the TGI in test [12], in [13] and in test [14] was above 10 µM throughout.
With `CCOC(=O)C1(C#N)C(c2ccccc2)CC(O)(c2ccc(OC)cc2)C(C(=O)c2ccc(OC)cc2)C1c1ccccc1` (centres undefined), the TGI in [1], in [2], in test [3], in [4], in [5] and in test [6] was above 100 µM throughout. Also, the TGI in test [7], in [8], in test [9], in test [16], in test [10] and in [11] was above 100 µM throughout. Besides, the TGI in test [12], in [13] and in test [14] was above 100 µM each time.
Regarding `CN(CC(=O)O)c1ncc2c(n1)-c1ccccc1SC2`, the TGI in test [1], in [2], in test [15], in test [5], in test [6] and in test [7] was above 100 µM throughout. Besides, the TGI in [8], in test [9], in test [10], in test [12], in test [13] and in test [14] was above 100 µM in each case.
For the molecule `CO/N=C/c1cc(OC)c(OC)c(OC)c1`, the TGI in test [1], in test [2], in test [3], in [4], in test [5] and in test [6] was above 100 µM throughout. Also, the concentration for total growth inhibition (TGI) in [7], in test [8], in test [9], in [16], in test [10] and in [11] was above 100 µM in each case. The TGI in test [12], in test [13] and in test [14] was above 100 µM in each case.
On to `O=C(C=P(c1ccccc1)(c1ccccc1)c1ccccc1)c1ccc(-c2cccc([N+](=O)[O-])c2)s1`, for which the TGI in [1] was 55.6 µM; in [2] it was above 100 µM; in test [3] it was above 100 µM; in [15], above 100 µM; in test [4], above 100 µM; in test [5], above 100 µM. In addition, the TGI in test [6] was 54.9 µM; in test [7], 74.2 µM; in test [8] it was above 100 µM; in test [9], above 100 µM; in [16], above 100 µM; in [10], above 100 µM. For the same molecule, the TGI in test [11], in test [12], in test [13] and in test [14] was above 100 µM throughout.
